From patent US10829487B2, “Benzylamino substituted pyridopyrimidinones and derivatives as SOS1 inhibitors” (Boehringer Ingelheim International GmbH, priority 2017, dated 2020)

These compounds were tested against protein-protein interaction between SOS1 and KRAS G12D (Homo sapiens (Human), UniProt Q07889) (assay: KRAS::SOS1 AlphaScreen Binding Assay). Settings: KRAS G12D::SOS1 AlphaScreen; measured without EDTA unless marked with an asterisk.
From the text: KRAS::SOS1 AlphaScreen Binding Assay
Low IC50 values are indicative of high potency of the SOS1 inhibitor compound in this assay setting:
Reagents: • GST-tagged SOS1 (564_1049_GST_TEV_ECO) produced in-house • GST-TEV-SOS1 (564-1049) is purchased from Viva Biotech Ltd. • 6×His-Tev-K-RasG12D(1-169)Avi is purchased from Xtal BioStructures, Inc. (Lot # X129-110) • GDP (Sigma Cat No G7127) • AlphaLISA Glutathione Acceptor Beads (PerkinElmer, Cat No AL109) • AlphaScreen Streptavidin Donor Beads (PerkinElmer Cat No 6760002) • Assay plates: Proxiplate-384 PLUS, white (PerkinElmer, Cat No 6008289)
10 nM (final assay concentration) KRAS G12D, 10 μM (final assay concentration) GDP and 5 nM (final assay concentration) GST-SOS1 are mixed in assay buffer prior to use and kept at room temperature.
AlphaLISA Glutathione Acceptor Beads and AlphaScreen Streptavidin Donor Beads are mixed in assay buffer at a concentration of 10 μg/mL (final assay concentration) each prior to use and kept at room temperature.
Compounds are diluted to a final start concentration of 100 μM and are tested in duplicate. Assay-ready plates (ARPs) are generated using an Access Labcyte Workstation with a Labcyte Echo 550 or 555 accoustic dispenser. For compound a start concentration of 100 μM, 150 nL of compound solution is transferred per well in 11 concentrations in duplicate with serial 1:5 dilutions.
The assay is run using a fully automated robotic system in a darkened room below 100 Lux. 10 μL of KRAS::SOS1 GDP mix is added into columns 1-24 to the 150 nL of compound solution (final dilution in the assay 1:100, final DMSO concentration 1%).
After a 30 minute incubation time 5 μL of bead mix is added into columns 1-23. Plates are kept at room temperature in a darkened incubator. After a further 60 minute incubation, the signal is measured using a PerkinElmer Envision HTS Multilabel Reader using the AlphaScreen specifications from PerkinElmer. Each plate contains the following controls: • diluted DMSO+KRAS::SOS1 GDP mix+bead mix • diluted DMSO+KRAS::SOS1 GDP mix
IC50 values are calculated and analyzed using a 4 parametric logistic model.

protein-protein interaction between SOS1 and KRAS G12D, sequence (Q07889 564-1049, stated change not applied): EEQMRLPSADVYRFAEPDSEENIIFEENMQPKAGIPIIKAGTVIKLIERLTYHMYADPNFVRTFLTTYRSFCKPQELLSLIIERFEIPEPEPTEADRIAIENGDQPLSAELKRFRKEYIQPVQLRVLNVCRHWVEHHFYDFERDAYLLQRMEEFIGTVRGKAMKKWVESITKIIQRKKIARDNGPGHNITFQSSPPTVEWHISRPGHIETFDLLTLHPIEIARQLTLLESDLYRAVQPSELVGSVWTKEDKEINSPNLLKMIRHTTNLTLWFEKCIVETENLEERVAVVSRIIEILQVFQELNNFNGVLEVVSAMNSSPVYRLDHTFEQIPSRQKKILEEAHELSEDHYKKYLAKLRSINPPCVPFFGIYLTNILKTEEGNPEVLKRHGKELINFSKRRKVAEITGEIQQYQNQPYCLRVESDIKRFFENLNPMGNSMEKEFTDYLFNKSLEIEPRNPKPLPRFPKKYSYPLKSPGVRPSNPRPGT

Row | Structure (SMILES) | IC50
1 | C[C@@H](Nc1ncnc2cc(=O)n(C3(C)CC3)cc12)c1cccc2c1CCC2=O [I-105] | 25 nM
2 | C[C@@H](Nc1ncnc2cc(=O)n(C34CC(C3)C4)cc12)c1cccc2c1CCC2=O [I-107] | 17 nM
3 | Cc1nc(N[C@H](C)c2cccc(C(F)(F)F)c2)c2cn(C3(C)CCOC3)c(=O)cc2n1 (stereo partly drawn) [I-111] | 9 nM

Now from value to compound:

Row | IC50 | Structure (SMILES)
4 | 6 nM | C[C@@H](Nc1ncnc2cc(=O)n(C34CCC(CC3)C4)cc12)c1cccc2c1CCC2=O [I-109]
5 | 25 nM | Cc1nc(N[C@H](C)c2cccc(C(F)(F)F)c2)c2cn(C(C)(C)C)c(=O)cc2n1 [I-110]

Same assay, conditions: Table 20; KRAS::SOS1 AlphaScreen (SOS1 / KRAS G12D)

Row | Structure (SMILES) | IC50
6 | Cc1nc(N[C@H](C)c2cccc(C(F)F)c2F)c2cn(C3(C)CC3)c(=O)cc2n1 [I-1] | 5 nM
7 | Cc1nc(N[C@H](C)c2cccc(C(F)F)c2F)c2cn(C3(CF)CC3)c(=O)cc2n1 [I-2] | 4 nM
8 | CCC1(n2cc3c(N[C@H](C)c4cccc(C(F)F)c4F)nc(C)nc3cc2=O)CC1 [I-5] | 12 nM
9 | COCC1(n2cc3c(N[C@H](C)c4cccc(C(F)F)c4F)nc(C)nc3cc2=O)CC1 [I-6] | 6 nM
10 | Cc1nc(N[C@H](C)c2cccc(C(F)F)c2F)c2cn(C3(C)CCC3)c(=O)cc2n1 [I-11] | 5 nM
11 | Cc1nc(N[C@H](C)c2cccc(C(F)F)c2F)c2cn(C34CC(C3)C4)c(=O)cc2n1 [I-15] | 8 nM
12 | Cc1nc(N[C@H](C)c2cccc(C(F)F)c2F)c2cn(C3CCOCC3)c(=O)cc2n1 [I-18] | 5 nM
13 | Cc1nc(N[C@H](C)c2cccc(C(F)(F)F)c2)c2cn(C3CCCC3)c(=O)cc2n1 [I-28] | 27 nM
14 | Cc1nc(N[C@H](C)c2cccc(C(F)(F)F)c2)c2cn(C3CCC(F)(F)CC3)c(=O)cc2n1 [I-30] | 39 nM
15 | Cc1nc(N[C@H](C)c2cccc(C(F)(F)F)c2)c2cn(C3CCOCC3)c(=O)cc2n1 [I-31] | 11 nM
16 | Cc1nc(N[C@H](C)c2cccc(C(F)(F)F)c2C)c2cn(C3(C)CCC3)c(=O)cc2n1 [I-42] | 9 nM
17 | Cc1nc(N[C@H](C)c2cccc(C(F)(F)F)c2C)c2cn([C@H]3C[C@H](O)C3)c(=O)cc2n1 [I-43] | 5 nM
18 | Cc1nc(N[C@H](C)c2cccc(C(F)(F)F)c2C)c2cn([C@H]3C[C@@](O)(C(F)(F)F)C3)c(=O)cc2n1 [I-48] | 27 nM
19 | Cc1nc(N[C@H](C)c2cccc(C(C)(F)F)c2F)c2cn(C3(C(F)(F)F)CC3)c(=O)cc2n1 [I-55] | 13 nM
20 | C[C@@H](Nc1ncnc2cc(=O)n(C3(C(F)F)CC3)cc12)c1cccc(C(F)F)c1F [I-64] | 8 nM
21 | C[C@@H](Nc1ncnc2cc(=O)n(C3CC34CC4)cc12)c1cccc(C(F)F)c1F (stereo partly drawn) [I-66] | 15 nM
22 | C[C@@H](Nc1ncnc2cc(=O)n(C34CC(C3)C4)cc12)c1cccc(C(F)F)c1F [I-70] | 7 nM
23 | C[C@@H](Nc1ncnc2cc(=O)n(C3(C(F)(F)F)CCOC3)cc12)c1cccc(C(F)F)c1F (stereo partly drawn) [I-72] | 11 nM
24 | C[C@@H](Nc1ncnc2cc(=O)n(C3(CF)CC3)cc12)c1cccc(C(C)(F)F)c1F [I-77] | 6 nM
25 | Cc1nc(N[C@H](C)c2cccc(C(F)F)c2F)c2cn(C3(C(F)F)CC3)c(=O)c(F)c2n1 [I-82] | 5 nM
26 | Cc1nc(N[C@H](C)c2cccc(C(F)(F)C3CCCO3)c2)c2cn(C3(C)CC3)c(=O)c(F)c2n1 (stereo partly drawn) [I-92] | 4 nM
27 | Cc1nc(N[C@H](C)c2cccc(CC(F)(F)F)c2)c2cn(C3(C(F)F)CC3)c(=O)cc2n1 [I-100] | 30 nM

Continued, values first:

Row | IC50 | Structure (SMILES)
28 | 8 nM | Cc1nc(N[C@H](C)c2cccc(C(F)F)c2F)c2cn(C3(c4ccncc4)CC3)c(=O)cc2n1 [I-7]
29 | 16 nM | Cc1nc(N[C@H](C)c2cccc(C(F)F)c2F)c2cn(C3(c4ccccc4)CC3)c(=O)cc2n1 [I-8]
30 | 30 nM | Cc1nc(N[C@H](C)c2cccc(C(F)F)c2F)c2cn(C3(c4ccc(F)cc4)CC3)c(=O)cc2n1 [I-9]
31 | 7 nM | Cc1nc(N[C@H](C)c2cccc(C(F)F)c2F)c2cn([C@H]3C[C@H](F)C3)c(=O)cc2n1 [I-12]
32 | 12 nM | Cc1nc(N[C@H](C)c2cccc(C(F)F)c2F)c2cn(C34CC(F)(C3)C4)c(=O)cc2n1 [I-16]
33 | 5 nM | Cc1nc(N[C@H](C)c2cccc(C(F)F)c2F)c2cn(C34CC(N5CCOCC5)(C3)C4)c(=O)cc2n1 [I-17]
34 | 2 nM | Cc1nc(N[C@H](C)c2cccc(C(F)F)c2F)c2cn(C34CCC(CC3)C4)c(=O)cc2n1 [I-19]
35 | 10 nM | Cc1nc(N[C@H](C)c2cccc(C(F)F)c2C)c2cn(C34CCC(C(=O)N(C)C)(CC3)C4)c(=O)cc2n1 [I-24]
36 | 37 nM | Cc1nc(N[C@H](C)c2cccc(C(F)(F)F)c2)c2cn(C3CC3)c(=O)cc2n1 [I-26]
37 | 24 nM | Cc1nc(N[C@H](C)c2cccc(C(F)(F)F)c2)c2cn(C3CCCCC3)c(=O)cc2n1 [I-29]
38 | 12 nM | Cc1nc(N[C@H](C)c2cccc(C(F)(F)F)c2F)c2cn([C@H]3[C@@H]4COC[C@@H]43)c(=O)cc2n1 [I-32]
39 | 38 nM | Cc1nc(N[C@H](C)c2cccc(C(F)(F)F)c2F)c2cn([C@@H]3CCOC3)c(=O)cc2n1 [I-33]
40 | 39 nM | Cc1nc(N[C@H](C)c2cccc(C(F)(F)F)c2F)c2cn([C@H]3CCOC3)c(=O)cc2n1 [I-34]
41 | 9 nM | Cc1nc(N[C@H](C)c2cccc(C(F)(F)F)c2F)c2cn(C3CCOCC3)c(=O)cc2n1 [I-35]
42 | 40 nM | Cc1nc(N[C@H](C)c2cccc(C(F)(F)F)c2F)c2cn(C3(c4ccccc4)CCOCC3)c(=O)cc2n1 [I-36]
43 | 9 nM | Cc1nc(N[C@H](C)c2cccc(C(F)(F)F)c2C)c2cn([C@H]3[C@@H]4COC[C@@H]43)c(=O)cc2n1 [I-40]
44 | 14 nM | Cc1nc(N[C@H](C)c2cccc(C(F)(F)F)c2C)c2cn(C3CCC3)c(=O)cc2n1 [I-41]
45 | 12 nM | Cc1nc(N[C@H](C)c2cccc(C(F)(F)F)c2C)c2cn([C@H]3C[C@@H](O)C3)c(=O)cc2n1 [I-44]
46 | 31 nM | Cc1nc(N[C@H](C)c2cccc(C(F)(F)F)c2C)c2cn(C3(C)CC(F)(F)C3)c(=O)cc2n1 [I-46]
47 | 15 nM | Cc1nc(N[C@H](C)c2cccc(C(C)(F)F)c2F)c2cn(C34CC(F)(C3)C4)c(=O)cc2n1 [I-56]
48 | 2 nM | Cc1nc(N[C@H](C)c2cccc3c2CCC3(F)F)c2cn(C34CCN(CC3)C4)c(=O)cc2n1 [I-60]
49 | 7 nM | C[C@@H](Nc1ncnc2cc(=O)n(C3(C)CC3)cc12)c1cccc(C(F)F)c1F [I-62]
50 | 7 nM | C[C@@H](Nc1ncnc2cc(=O)n(C3(CF)CC3)cc12)c1cccc(C(F)F)c1F [I-63]
51 | 10 nM | C[C@@H](Nc1ncnc2cc(=O)n(C3(C(F)(F)F)CC3)cc12)c1cccc(C(F)F)c1F [I-65]
52 | 7 nM | C[C@@H](Nc1ncnc2cc(=O)n(C3(C)CC3)cc12)c1cccc(C(C)(F)F)c1F [I-76]
53 | 4 nM | Cc1nc(N[C@H](C)c2cccc(C(F)(F)C(C)(C)O)c2F)c2cn(C34CC(F)(C3)C4)c(=O)c(F)c2n1 [I-91]
54 | 3 nM | Cc1nc(N[C@H](C)c2cccc(C(F)(F)C3CCCO3)c2)c2cn(C3(C(F)F)CC3)c(=O)c(F)c2n1 (stereo partly drawn) [I-93]
55 | 5 nM | Cc1nc(N[C@H](C)c2cccc(C(F)(F)[C@@H]3CCCO3)c2F)c2cn(C3(C)CC3)c(=O)c(F)c2n1 [I-94]
56 | 5 nM | Cc1nc(N[C@H](C)c2cccc(C(F)(F)[C@@H]3CCCO3)c2F)c2cn(C3(C(F)F)CC3)c(=O)c(F)c2n1 [I-95]
57 | 7 nM | Cc1nc(N[C@H](C)c2cccc(C(C)(F)F)c2)c2cn(C3(C(F)F)CC3)c(=O)cc2n1 [I-99]
